US6203976A, “Methods of preparing compositions comprising chemicals capable of transcriptional modulation” (OSI Pharmaceuticals, Inc., priority 1994, dated 2001)
Values joined by “and” are separate entries in the source; they are usually repeats but may differ in a detail not shown here. Identical values can stand only once. Like-named read-outs stand apart in the source and are kept apart here.

Columns and labels:
MMTV (M10) promoter = assay: High-throughput luciferase reporter assay, MMTV promoter (Screen III); type: cell-based, mouse; settings: for FOLD INDUCTION RELATIVE TO SOLVENT CONTROL, MMTV: Screen III activators
Method: pMluci and pSV2Neo, an antibiotic resistance plasmid (112), were co-transfected into NIH/3T3 mouse fibroblast cells using the calcium phosphate precipitation method (103) with a commercially available kit (Pharmacia, Piscataway N.J.). Two days later, cells were transferred to media containing 0.4 mg/ml G418 and were grown for an additional 10-14 days. G418-resistant clones were isolated by standard methods. Once sufficient cell numbers were obtained, clones were analyzed based on several criteria: constitutive luciferase production, induction of luciferase expression by dexamethasone (1 μm, Sigma, St. Louis, Mo.), satisfactory attachment to microtiter plates used in the high-throughput screen and acceptable standard deviation in multiple luciferase expression assays (see below for assay protocol). This analysis was carried out using the luciferase assay conditions described above. Of the clones which satisfied the above criteria for the high throuphput screen, one clone, M10, was selected for use.

[1] = system: human G-CSF (G21) promoter; assay: High-throughput luciferase reporter assay, G-CSF promoter (Screen III); settings: for scored as positive in repeat assays, G-CSF: 48 independent luciferase assays performed on the same day; for FOLD INDUCTION RELATIVE TO SOLVENT CONTROL, GCSF: Screen III activators; for FOLD INDUCTION RELATIVE TO SOLVENT CONTROL, GCSF / FOLD INHIBITION RELATIVE TO SOLVENT CONTROL, GCSF: G21 cells, 6 hours; for FOLD INHIBITION RELATIVE TO SOLVENT CONTROL, GCSF: Screen III inhibitors
[2] = system: human growth hormone (532) promoter; assay: High-throughput luciferase reporter assay, human Growth Hormone promoter (Screen III); type: cell-based; settings: for FOLD INDUCTION RELATIVE TO SOLVENT CONTROL, hGH: Screen III activators
[3] = Screen III inhibitors, M10 cells, 6 hours
[4] = Screen III inhibitors, 532 cells, 6 hours

Row | SMILES | FOLD INDUCTION RELATIVE TO SOLVENT CONTROL, MMTV (MMTV (M10) promoter; M10 cells, 6 hours) | FOLD INDUCTION RELATIVE TO SOLVENT CONTROL, GCSF [1] | FOLD INDUCTION RELATIVE TO SOLVENT CONTROL, hGH ([2]; 532 cells, 6 hours) | FOLD INHIBITION RELATIVE TO SOLVENT CONTROL, MMTV (MMTV (M10) promoter; [3]) | FOLD INHIBITION RELATIVE TO SOLVENT CONTROL, hGH [2, 4] | other results
1 | CC(=O)n1ccnc1 [Chemical #58, 1-Acetylimidazole] | 0.42 fold | 6.03 fold | 0.17 fold |  |  | scored as positive in repeat assays, G-CSF [1]: scored as positives in every single one of these assays
2 | CC(=O)N(C)c1ccc(N)cc1 [Chemical #1374, 4'-Amino-N-methylacetanilide] | 1.05 fold | 11.03 fold | 0.05 fold |  |  | scored as positive in repeat assays, G-CSF [1]: scored as positives in every single one of these assays
3 | CN(C)c1ccc(C(=C2C=CC(=[N+](C)C)C=C2)c2ccc(N(C)C)cc2)cc1 [Chemical #1780, Crystal Violet] | 1.15 fold | 20.39 fold | 0.38 fold |  |  | scored as positive in repeat assays, G-CSF [1]: scored as positives in every single one of these assays
4 | O=NN(O)c1ccccc1 [Chemical #1783, Cupferron] | 0.89 fold | 6.55 fold | 0.32 fold |  |  | scored as positive in repeat assays, G-CSF [1]: scored as positive only in half of the 48 repeat assays
5 | CC(=O)c1c(C)cc(NC(C)(C)C)nc1NC(C)(C)C [compound 40] | 0.27 fold | 5.62 fold | 0.62 fold |  |  | 
6 | CC(=O)c1ccc[nH]1 [compound 70] | 0.85 fold | 0.43 fold | 9.26 fold |  |  | 
7 | CN(C)c1ccc2cc3ccc(N(C)C)cc3nc2c1 [compound 80] | 0.83 fold | 5.87 fold | 0.66 fold |  |  | 
8 | CN(C)c1ccc(C(=N)c2ccc(N(C)C)cc2)cc1 [compound 183] |  |  |  | 0.70 fold | 4.00 fold | FOLD INHIBITION RELATIVE TO SOLVENT CONTROL, GCSF [1]: 0.72 fold
9 | O=C(c1ccccc1)c1ccncc1 [compound 209] |  |  |  | 0.81 fold | 1.08 fold | 
10 | CCOC(=O)N1C(=O)c2ccccc2C1=O [compound 237] | 0.62 fold | 4.77 fold | 0.06 fold |  |  | 
11 | Cc1c(C(=O)O)c(O)cc2c1C(=O)c1c(O)c([C@@H]3O[C@H](CO)[C@@H](O)[C@H](O)[C@H]3O)c(O)c(O)c1C2=O [compound 240] |  |  |  | 0.80 fold | 5.26 fold | FOLD INHIBITION RELATIVE TO SOLVENT CONTROL, GCSF [1]: 0.63 fold
12 | ClCCN1CCCCC1 [compound 254] | 0.98 fold | 4.09 fold | 0.90 fold |  |  | 
13 | NC(=O)N1c2ccccc2CCc2ccccc21 [compound 299] | 0.47 fold | 0.53 fold | 5.46 fold |  |  | 
14 | CCn1c(=O)[nH]c2ccccc21 [compound 322] | 1.12 fold | 0.60 fold | 11.18 fold |  |  | 
15 | O=c1c(O)c(-c2ccc(O)c(O)c2)oc2cc(O)ccc12 [compound 325] | 1.0 fold | 0.14 fold | 5.42 fold |  |  | 
16 | Nc1nc(N)nc(N)n1 [compound 364] | 1.07 fold | 3.67 fold | 1.18 fold |  |  | 
17 | O=c1c(O)c(-c2ccc(O)cc2O)oc2cc(O)cc(O)c12 [compound 371] |  |  |  | 0.89 fold | 0.41 fold | 
18 | O=C(O)c1ccc2c3c(ncnc13)-c1ccccc1C2=O [compound 378] | 0.59 fold | 4.12 fold | 0.26 fold |  |  | 
19 | CCN(CC)CCCC(C)Nc1c2ccc(Cl)cc2nc2ccc(OC)cc12 (stereo not shown) [compound 423] | 0.64 fold | 2.39 fold | 0.56 fold |  |  | 
20 | O=c1ccc2[n+]([O-])c3ccc(O)cc3oc-2c1 [compound 427] | 0.71 fold | 3.14 fold | 0.43 fold |  |  | 

Row | SMILES | FOLD INDUCTION RELATIVE TO SOLVENT CONTROL, MMTV (MMTV (M10) promoter; M10 cells, 6 hours) | FOLD INDUCTION RELATIVE TO SOLVENT CONTROL, GCSF [1] | FOLD INDUCTION RELATIVE TO SOLVENT CONTROL, hGH ([2]; 532 cells, 6 hours) | FOLD INHIBITION RELATIVE TO SOLVENT CONTROL, MMTV (MMTV (M10) promoter; [3]) | FOLD INHIBITION RELATIVE TO SOLVENT CONTROL, hGH [2, 4] | other results
21 | Cc1cc(C)nc(NS(=O)(=O)c2ccc(N)cc2)n1 [compound 443] |  |  |  | 0.79 fold | 4.76 fold | FOLD INHIBITION RELATIVE TO SOLVENT CONTROL, GCSF [1]: 0.60 fold
22 | c1ccc(-c2cccc(-c3ccccn3)n2)nc1 [compound 453] |  | 0.79 fold | 0.58 fold |  |  | FOLD INDUCTION RELATIVE TO SOLVENT CONTROL, MMTV (MMTV (M10) promoter; M10 cells, 6 hours, 360 min): 13.3 fold and 13.30 fold; ability to activate the MMTV promoter with methanol replacing DMSO (MMTV (M10) promoter; chemical dissolved in methanol instead of DMSO): did not affect its ability to activate the MMTV promoter
23 | c1ncncn1 [compound 473] | 0.87 fold | > 3 fold | 0.50 fold |  |  | 
24 | CC(C=O)=CC=CC(C)=CC=CC=C(C)C=CC=C(C)C=CC1=C(C)CCCC1(C)C [compound 519] | 2.76 fold | 1.15 fold | 0.68 fold |  |  | 
25 | O=P(O)(O)Oc1c[nH]c2ccc(Br)c(Cl)c12 [compound 541] |  |  |  | 0.86 fold | 6.25 fold | FOLD INHIBITION RELATIVE TO SOLVENT CONTROL, GCSF [1]: 0.90 fold
26 | Nc1nc(=O)n([C@H]2C[C@H](O)[C@@H](CO)O2)cc1Br [compound 542] | 1.26 fold | 6.28 fold | 1.08 fold |  |  | 
27 | O=c1[nH]c(=O)n([C@H]2C[C@H](O)[C@@H](CO)O2)cc1Br [compound 543] | 0.98 fold | 7.17 fold | 0.72 fold |  |  | 
28 | CON(C)C(=O)Nc1ccc(Cl)cc1 [compound 552] | 0.86 fold | 0.81 fold | 5.31 fold |  |  | 
29 | CC1=CC(=C(c2cc(C)c(O)c(C(=O)O)c2)c2c(Cl)ccc(S(=O)(=O)O)c2Cl)C=C(C(=O)O)C1=O [compound 556] |  |  |  | 0.87 fold | 33.33 fold | FOLD INHIBITION RELATIVE TO SOLVENT CONTROL, GCSF [1]: 0.73 fold
30 | CC(=O)NCCCC[C@H](NC(C)=O)C(=O)O [compound 577] |  |  |  | 0.68 fold | 4.00 fold | FOLD INHIBITION RELATIVE TO SOLVENT CONTROL, GCSF [1]: 0.64 fold
31 | O=C(O[C@H](C(=O)O)[C@H](OC(=O)c1ccccc1)C(=O)O)c1ccccc1 [compound 578] |  |  |  | 0.91 fold | 4.00 fold | FOLD INHIBITION RELATIVE TO SOLVENT CONTROL, GCSF [1]: 0.65 fold
32 | COc1ccc(CC(=O)O)cc1OC [compound 629] | 2.48 fold | 0.85 fold | 1.05 fold |  |  | 
33 | O=C(O)CC1NC(=O)NC1=O (stereo not shown) [compound 630] |  |  |  | 0.74 fold | 3.57 fold | FOLD INHIBITION RELATIVE TO SOLVENT CONTROL, GCSF [1]: 0.70 fold
34 | O=C(O)c1[nH]c(=O)[nH]c(=O)c1I [compound 633] | 2.46 fold | 1.02 fold | 0.86 fold |  |  | 
35 | Nc1c(O)c(S(=O)(=O)O)c(O)c2c1C(=O)c1ccccc1C2=O [compound 640] |  |  |  | 0.59 fold | 5.00 fold | FOLD INHIBITION RELATIVE TO SOLVENT CONTROL, GCSF [1]: 0.64 fold
36 | C[C@]12C=CC(=O)C=C1CC[C@@H]1[C@@H]2[C@@H](O)C[C@@]2(C)[C@H]1CC[C@]2(O)C(=O)CO [compound 764] |  |  |  |  |  | FOLD INHIBITION RELATIVE TO SOLVENT CONTROL, MMTV (MMTV (M10) promoter): 0.59; FOLD INHIBITION RELATIVE TO SOLVENT CONTROL, hGH [2]: 4.54
37 | NC(=O)c1ccccc1O [compound 798] |  |  |  | 0.68 fold | 0.90 fold | 
38 | Cc1n[nH]cc1Br [compound 2082] |  |  |  | 1.23 fold | 0.65 fold | 
39 | ClCCCCCBr [compound 2097] | 1.22 fold |  | 0.88 fold |  |  | 
40 | OCc1cccc(Cl)c1 [compound 2121] |  |  |  | 1.14 fold | 0.40 fold | 
